Experimental data reported in patent publication US20180208605A1, “Substituted Aza Compounds as IRAK-4 Inhibitors” (AURIGENE DISCOVERY TECHNOLOGIES LIMITED, priority 2015, published 2018).
Counter-ions that a name gives are not always drawn.

Biological target: T1, recombinant IRAK-4 kinase (Homo sapiens, UniProt Q9NWZ3)
T1 construct: purchased Millipore, USA
T1 sequence (Q9NWZ3 1-460): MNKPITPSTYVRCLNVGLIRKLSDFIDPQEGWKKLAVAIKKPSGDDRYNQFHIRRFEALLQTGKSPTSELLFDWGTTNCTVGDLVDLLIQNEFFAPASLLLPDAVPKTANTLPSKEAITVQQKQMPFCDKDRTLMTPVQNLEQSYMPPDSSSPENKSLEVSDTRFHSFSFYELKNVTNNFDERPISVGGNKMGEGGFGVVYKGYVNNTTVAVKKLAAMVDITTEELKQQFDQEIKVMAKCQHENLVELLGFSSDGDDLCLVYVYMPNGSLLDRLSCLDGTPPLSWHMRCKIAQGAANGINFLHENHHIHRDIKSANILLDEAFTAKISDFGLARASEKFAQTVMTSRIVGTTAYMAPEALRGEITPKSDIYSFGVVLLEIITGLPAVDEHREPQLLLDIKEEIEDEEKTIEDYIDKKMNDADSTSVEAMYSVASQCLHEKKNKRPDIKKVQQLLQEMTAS
Experiment: IRAK-4 Biochemical Assay (TR-FRET, percent inhibition)
Conditions: TR-FRET, 20 μM ATP, 100 nM Biotin Histone H3; for inhibition at 0.1 µM: read-out: % inhibition of IRAK-4 @0.1 μM, compound at 0.1 μM; for inhibition at 1 µM: read-out: % inhibition of IRAK-4 @ 1 μM, compound at 1 μM
Outline: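 IRAK-4 pre-incubated with compound 30 min at room temperature in Tris-HCl pH 7.5 buffer with MgCl2, MnCl2 and DTT, then reacted 30 min with 100 nM biotin-histone H3 and 20 μM ATP. EDTA stop with Eu-anti-phospho-H3 (Ser10) and APC-streptavidin. Percent inhibition derived from the 665/615 nm emission ratio at 340 nm excitation.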

Compound	inhibition at 0.1 µM	inhibition at 1 µM	% inhibition of IRAK-4 @0.1 μM (compound at 0.1 μM)	% inhibition of IRAK-4 @ 1 μM (compound at 1 μM)
NCC(=O)OC1CCN(c2cccc(C(=O)Nc3cc4sc(N5CCOCC5)nc4nc3N3CCOCC3)n2)C1 (stereo not shown) [Example 79, 1-(6-((2,5-dimorpholinothiazolo[4,5-b]pyridin-6-yl)carbamoyl)pyridin-2-yl)pyrrolidin-3-yl glycinate]	70%	96%	–	–
O=C(Nc1cc2sc(N3CCOCC3)nc2nc1N1CCCCC1)c1cccc(N2C3CCC2CC(O)C3)n1 (stereo not shown) [Example 81, 6-(3-hydroxy-8-azabicyclo[3.2.1]octan-8-yl)-N-(2-morpholino-5-(piperidin-1-yl)thiazolo[4,5-b]pyridin-6-yl)picolinamide]	88%	94%	–	–
Cc1cc(-c2nc(C(=O)Nc3cc4oc(N5CCOCC5)nc4nc3N3CC(C)(C)CC3=O)co2)ccn1 [Example 86, N-(5-(4,4-dimethyl-2-oxopyrrolidin-1-yl)-2-morpholinooxazolo[4,5-b]pyridin-6-yl)-2-(2-methylpyridin-4-yl)oxazole-4-carboxamide]	65%	57%	–	–
Nc1cccc(-c2nc(C(=O)Nc3cc4oc(N5CCOCC5)nc4nc3N3CC[C@@H](O)C3)co2)n1 [Example 87, (R)-2-(6-aminopyridin-2-yl)-N-(5-(3-hydroxypyrrolidin-1-yl)-2-morpholinooxazolo[4,5-b]pyridin-6-yl)oxazole-4-carboxamide hydrochloride]	21%	57%	–	–
Nc1cc(-c2nc(C(=O)Nc3cc4oc(N5CCOCC5)nc4nc3N3CC[C@@H](O)C3)co2)c(Cl)cn1 [Example 88, (R)-2-(2-amino-5-chloropyridin-4-yl)-N-(5-(3-hydroxypyrrolidin-1-yl)-2-morpholinooxazolo[4,5-b]pyridin-6-yl)oxazole-4-carboxamide]	15%	–	–	–
Cc1cc(-c2nc(C(=O)Nc3cc4oc(N5CCOCC5)nc4nc3N3CCCC3=O)co2)ccn1 [Example 89, 2-(2-methylpyridin-4-yl)-N-(2-morpholino-5-(2-oxopyrrolidin-1-yl)oxazolo[4,5-b]pyridin-6-yl)oxazole-4-carboxamide hydrochloride]	26%	73%	–	–
Nc1ccc(-c2cccc(C(=O)Nc3cc4oc(N5CCOCC5)nc4nc3N3CC[C@@H](O)C3)n2)cn1 [Example 90, (R)-6′-amino-N-(5-(3-hydroxypyrrolidin-1-yl)-2-morpholinooxazolo[4,5-b]pyridin-6-yl)-[2,3′-bipyridine]-6-carboxamide hydrochloride]	87%	97%	–	–
Cc1cc(-c2ccc(C(=O)Nc3cc4oc(N5CCOCC5)nc4nc3N3CC[C@@H](O)C3)o2)ccn1 [Example 91, (R)-N-(5-(3-hydroxypyrrolidin-1-yl)-2-morpholinooxazolo[4,5-b]pyridin-6-yl)-5-(2-methylpyridin-4-yl)furan-2-carboxamide hydrochloride]	45%	92%	–	–
Nc1ccc(-c2cccc(C(=O)Nc3cc4oc(N5CCOCC5)nc4nc3N3CCOCC3)n2)cn1 [Example 92, 6′-amino-N-(2,5-dimorpholinooxazolo[4,5-b]pyridin-6-yl)-[2,3′-bipyridine]-6-carboxamide hydrochloride]	78%	96%	–	–
Nc1cccc(-c2nc(C(=O)Nc3cc4oc(N5CCOCC5)nc4nc3N3CCCCC3)co2)n1 [Example 93, 2-(6-aminopyridin-2-yl)-N-(2-morpholino-5-(piperidin-1-yl)oxazolo[4,5-b]pyridin-6-yl)oxazole-4-carboxamide]	87%	93%	–	–
C[C@H](O)Cn1cc(-c2cccc(C(=O)Nc3cc4oc(N5CCOCC5)nc4nc3N3CC[C@@H](O)C3)n2)cn1 [Example 94, 6-(1-((S)-2-hydroxypropyl)-1H-pyrazol-4-yl)-N-(5-((R)-3-hydroxypyrrolidin-1-yl)-2-morpholinooxazolo[4,5-b]pyridin-6-yl)picolinamide]	12%	60%	–	–
Cc1cc(-c2nc(C(=O)Nc3cc4oc(N5CCOCC5)nc4nc3N3CC[C@@H](OCC4CC4)C3)co2)ccn1 [Example 95, (R)-N-(5-(3-(cyclopropylmethoxy)pyrrolidin-1-yl)-2-morpholinooxazolo[4,5-b]pyridin-6-yl)-2-(2-methylpyridin-4-yl)oxazole-4-carboxamide]	80%	97%	–	–
Cc1cc(-c2nc(C(=O)Nc3cc4oc(N5CCOCC5)nc4nc3N3CC[C@@H](OC(=O)CN)C3)co2)ccn1 [Example 97, (R)-1-(6-(2-(2-methylpyridin-4-yl)oxazole-4-carboxamido)-2-morpholinooxazolo[4,5-b]pyridin-5-yl)pyrrolidin-3-yl glycinate]	87%	99%	–	–

Further lines, results first:

inhibition at 0.1 µM	inhibition at 1 µM	% inhibition of IRAK-4 @0.1 μM (compound at 0.1 μM)	% inhibition of IRAK-4 @ 1 μM (compound at 1 μM)	Compound
98%	78%	–	–	Nc1ccc(-c2cccc(C(=O)Nc3cc4sc(N5CCOCC5)nc4nc3N3CCCCC3)n2)cn1 [Example 75, 6′-amino-N-(2-morpholino-5-(piperidin-1-yl)thiazolo[4,5-b]pyridin-6-yl)-[2,3′-bipyridine]-6-carboxamide]
92%	97%	–	–	O=C(Nc1cc2sc(N3CCOCC3)nc2nc1N1CCOCC1)c1cccc(N2CCC(O)C2)n1 (stereo not shown) [Example 76, N-(2,5-dimorpholinothiazolo[4,5-b]pyridin-6-yl)-6-(3-hydroxypyrrolidin-1-yl)picolinamide]
98%	99%	–	–	O=C(Nc1cc2sc(N3CCOCC3)nc2nc1N1CCCCC1)c1cccc(N2CCC(CO)C2)n1 (stereo not shown) [Example 77, 6-(3-(hydroxymethyl)pyrrolidin-1-yl)-N-(2-morpholino-5-(piperidin-1-yl)thiazolo[4,5-b]pyridin-6-yl)picolinamide]
99%	96%	–	–	O=C(Nc1cc2sc(N3CCOCC3)nc2nc1N1CCCCC1)c1cccc(N2CCCC(CO)C2)n1 (stereo not shown) [Example 78, 6-(3-(hydroxymethyl)piperidin-1-yl)-N-(2-morpholino-5-(piperidin-1-yl)thiazolo[4,5-b]pyridin-6-yl)picolinamide]
–	–	96%	99%	O=C(Nc1cc2sc(N3CCOCC3)nc2nc1N1CCCCC1)c1cccc(N2CCC(C(=O)O)CC2)n1 [Example 80, 1-(6-((2-morpholino-5-(piperidin-1-yl)thiazolo[4,5-b]pyridin-6-yl)carbamoyl)pyridin-2-yl)piperidine-4-carboxylic acid]
93%	98%	–	–	NC(=O)C1CCN(c2cccc(C(=O)Nc3cc4sc(N5CCOCC5)nc4nc3N3CCCCC3)n2)CC1 [Example 82, 6-(4-carbamoylpiperidin-1-yl)-N-(2-morpholino-5-(piperidin-1-yl)thiazolo[4,5-b]pyridin-6-yl)picolinamide]
99%	98%	–	–	Nc1cc(-c2cccc(C(=O)Nc3cc4sc(N5CCOCC5)nc4nc3N3CCCCC3)n2)ccn1 [Example 83, 2′-amino-N-(2-morpholino-5-(piperidin-1-yl)thiazolo[4,5-b]pyridin-6-yl)-[2,4′-bipyridine]-6-carboxamide]
94%	98%	–	–	Cc1ccc(C(=O)Nc2cc3sc(N4CCOCC4)nc3nc2N2CCCCC2)nc1N1CC[C@H](O)C1 [Example 84, (S)-6-(3-hydroxypyrrolidin-1-yl)-5-methyl-N-(2-morpholino-5-(piperidin-1-yl)thiazolo[4,5-b]pyridin-6-yl)picolinamide]
101%	100%	–	–	Cc1ccc(C(=O)Nc2cc3sc(N4CCOCC4)nc3nc2N2CCCCC2)nc1-c1ccc(N)nc1 [Example 85, 6′-amino-3-methyl-N-(2-morpholino-5-(piperidin-1-yl)thiazolo[4,5-b]pyridin-6-yl)-[2,3′-bipyridine]-6-carboxamide]
94%	97%	–	–	N[C@H]1CCCCC1Nc1ccn2ncc(C(=O)Nc3cc4sc(N5CCOCC5)nc4nc3C3CC3)c2n1 (stereo partly shown) [Example 98, 2,2,2-trifluoroacetate]
89%	96%	–	–	NC1CCN(c2ccn3ncc(C(=O)Nc4cc5sc(N6CCOCC6)nc5nc4C4CC4)c3n2)CC1 [Example 99, 5-(4-aminopiperidin-1-yl)-N-(5-cyclopropyl-2-morpholinothiazolo[4,5-b]pyridin-6-yl)pyrazolo[1,5-a]pyrimidine-3-carboxamide 2,2,2-trifluoroacetate]
96%	99%	–	–	O=C(Nc1cc2sc(N3CCOCC3)nc2nc1C1CC1)c1cnn2ccc(N3CCC[C@H](O)C3)nc12 [Example 100, (S)-N-(5-cyclopropyl-2-morpholinothiazolo[4,5-b]pyridin-6-yl)-5-(3-hydroxypiperidin-1-yl)pyrazolo[1,5-a]pyrimidine-3-carboxamide]
